PubChem BioAssay (NCI)
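Values below derive from 48-hour exposures of cells grown in 96-well plates, with endpoints linearly interpolated between the two concentrations bracketing the appropriate inhibition level. GI50 marks 50% less growth. At the TGI there is no net growth.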

Tests used:
Test in all cases: inhibition of tumour cell growth, NCI panel, 48 h
[1] = test system: 786-0 renal
[2] = test system: A498 renal
[3] = test system: A549 NSCLC
[4] = test system: ACHN renal
[5] = test system: BT-549 breast
[6] = test system: CAKI-1 renal
[7] = test system: CCRF-CEM leukemia
[8] = test system: COLO 205 colon
[9] = test system: DU-145 prostate
[10] = test system: EKVX NSCLC
[11] = test system: HCC-2998 colon
[12] = test system: HCT-116 colon
[13] = test system: HCT-15 colon
[14] = test system: HL-60(TB) leukemia
[15] = test system: HOP-62 NSCLC
[16] = test system: HOP-92 NSCLC
[17] = test system: HS 578T breast
[18] = test system: HT29 colon
[19] = test system: IGROV1 ovarian
[20] = test system: K-562 leukemia
[21] = test system: KM12 colon
[22] = test system: LOX IMVI melanoma
[23] = test system: M14 melanoma
[24] = test system: MALME-3M melanoma
[25] = test system: MCF7 breast
[26] = test system: MDA-MB-231 breast
[27] = test system: MDA-MB-435
[28] = test system: MOLT-4 leukemia
[29] = test system: NCI-H23 lung
[30] = test system: NCI-H460 lung
[31] = test system: NCI-H522 lung
[32] = test system: NCI/ADR-RES ovarian
[33] = test system: OVCAR-3 ovarian
[34] = test system: OVCAR-4 ovarian
[35] = test system: OVCAR-5 ovarian
[36] = test system: OVCAR-8 ovarian
[37] = test system: PC-3 prostate
[38] = test system: RPMI-8226 leukemia
[39] = test system: RXF 393 renal
[40] = test system: SF-268 CNS
[41] = test system: SF-295 CNS
[42] = test system: SF-539 CNS
[43] = test system: SK-MEL-2 melanoma
[44] = test system: SK-MEL-28 melanoma
[45] = test system: SK-MEL-5 melanoma
[46] = test system: SK-OV-3 ovarian
[47] = test system: SN12C renal
[48] = test system: SNB-19 CNS
[49] = test system: SNB-75 CNS
[50] = test system: SR leukemia
[51] = test system: SW-620 colon
[52] = test system: T-47D breast
[53] = test system: TK-10 renal
[54] = test system: U251 CNS
[55] = test system: UACC-257 melanoma
[56] = test system: UACC-62 melanoma
[57] = test system: UO-31 renal

In the case of `COCCOc1ccc(-c2nc3ccc(-c4nc5ccc(N6CCN(C)CC6)cc5[nH]4)cc3[nH]2)cc1`, the GI50 [1] is reported as 1640 nM, the TGI [1] is reported as 3810 nM and the GI50 [2] is reported as 1210 nM. For the same molecule, the TGI [2] was 3390 nM, the GI50 [3] was 8050 nM and the TGI [3] was 35200 nM. The GI50 [4] was 10700 nM, the TGI [4] was greater than 100000 nM and the GI50 [5] was 1760 nM. The TGI [5] was 3960 nM, the GI50 [6] was 2250 nM and the TGI [6] was greater than 100000 nM. The GI50 [7] was 1020 nM, the TGI [7] was greater than 100000 nM and the GI50 [8] was 371 nM. For the same molecule, the TGI [8] was 3050 nM, the GI50 [9] was 1130 nM and the TGI [9] was 9590 nM. It also gave a GI50 [10] of 6560 nM, a TGI [10] of 46300 nM and a GI50 [11] of 1780 nM. It also gave a TGI [11] of 3770 nM, a GI50 [12] of 358 nM and a TGI [12] of 2460 nM. For the same molecule, the GI50 [13] was 38700 nM, the TGI [13] was greater than 100000 nM and the GI50 [14] was 1620 nM. The TGI [14] was 91800 nM, the GI50 [15] was 1560 nM and the TGI [15] was 14500 nM. For the same molecule, the GI50 [16] was 2160 nM, the TGI [16] was 9710 nM and the GI50 [17] was 2940 nM. The TGI [17] was 15900 nM, the GI50 [18] was 579 nM and the TGI [18] was greater than 100000 nM. For the same molecule, the GI50 [19] was 1710 nM, the TGI [19] was 4810 nM and the GI50 [20] was 911 nM. For the same molecule, the TGI [20] was greater than 100000 nM, the GI50 [21] was 2580 nM and the TGI [21] was 14300 nM. The GI50 [22] was 851 nM, the TGI [22] was 2830 nM and the GI50 [23] was 449 nM. It also gave a TGI [23] of 2500 nM, a GI50 [24] of 165 nM and a TGI [24] of 1550 nM. For the same molecule, the GI50 [25] was 316 nM, the TGI [25] was 11800 nM and the GI50 [26] was 2250 nM. It also gave a TGI [26] of 6490 nM, a GI50 [27] of 621 nM and a TGI [27] of 2140 nM. The GI50 [28] was 2810 nM, the TGI [28] was greater than 100000 nM and the GI50 [29] was 1210 nM. It also gave a TGI [29] of 5090 nM, a GI50 [30] of 3630 nM and a TGI [30] of 14700 nM. The GI50 [31] was 341 nM, the TGI [31] was 2360 nM and the GI50 [32] was greater than 100000 nM. The TGI [32] was greater than 100000 nM, the GI50 [33] was 621 nM and the TGI [33] was 3130 nM. It also gave a GI50 [34] of 313 nM, a TGI [34] of 3000 nM and a GI50 [35] of 3590 nM. The TGI [35] was 9970 nM, the GI50 [36] was 931 nM and the TGI [36] was 23400 nM. The GI50 [37] was 2190 nM, the TGI [37] was 24500 nM and the GI50 [38] was 4110 nM. For the same molecule, the TGI [38] was 35500 nM, the GI50 [39] was 1800 nM and the TGI [39] was 3630 nM. For the same molecule, the GI50 [40] was 576 nM, the TGI [40] was 5670 nM and the GI50 [41] was 1380 nM. It also gave a TGI [41] of 15700 nM, a GI50 [42] of 1220 nM and a TGI [42] of 2830 nM. The GI50 [43] was 1640 nM, the TGI [43] was 3590 nM and the GI50 [44] was 478 nM. The TGI [44] was 2210 nM, the GI50 [45] was 351 nM and the TGI [45] was 1880 nM. For the same molecule, the GI50 [46] was 2700 nM, the TGI [46] was 15600 nM and the GI50 [47] was 1420 nM. For the same molecule, the TGI [47] was 11800 nM, the GI50 [48] was 1870 nM and the TGI [48] was 10500 nM. For the same molecule, the GI50 [49] was 486 nM, the TGI [49] was 3140 nM and the GI50 [50] was 500 nM. The TGI [50] was 21900 nM, the GI50 [51] was 900 nM and the TGI [51] was 4590 nM. The GI50 [52] was 1000 nM, the TGI [52] was 9090 nM and the GI50 [53] was 4740 nM. The TGI [53] was 40200 nM, the GI50 [54] was 659 nM and the TGI [54] was 10200 nM. For the same molecule, the GI50 [55] was 1710 nM, the TGI [55] was 5920 nM and the GI50 [56] was 365 nM. For the same molecule, the TGI [56] was 2020 nM, the GI50 [57] was 29400 nM and the TGI [57] was greater than 100000 nM.
